Assay results published in patent US10538523B2, “4-(biphen-3-yl)-1H-pyrazolo[3,4-c]pyridazine derivatives of formula (I) as GABA receptor modulators for use in the treatment of epilepsy and pain” (PFIZER LIMITED, priority 2015, dated 2020).

How the values were obtained:
[1] = target: human recombinant GABA A receptor containing the alpha2, beta2, and gamma2 subunits (Homo sapiens (Human), UniProt P18507+P47869); assay: Radioligand competition binding assay with [3H]Ro-15-1788 (Flumazenil); conditions: [3H]flumazenil competition, HEK cell membranes, geometric mean of at least two replicates; read-out: GABA-α2 Ki
Protocol: The affinity of the test compounds was determined by radioligand competition binding assay, using the known compound [3H]Ro-15-1788 (Flumazenil) (Perkin Elmer, 85.4 Ci/mmol) and the human recombinant GABA A receptor containing the alpha2, beta2, and gamma2 subunits.
Membranes were prepared from HEK cells expressing hGABA A alpha2beta2-gamma2 receptor, and validated to ascertain protein concentration, receptor expression and to determine the Kd of the flumazenil as well as the Ki of a standard set of compounds before being used to test new compounds.
The assay was carried out in 96 well plates; testing compounds using a 10 point semi-log dilution range from 19 uM top concentration. 100 ul of radioligand and 100 ul of membrane in 50 mM Tris-HCl and 0.05% F127 with 1 ul of test compound was incubated for 2 hours to allow the reaction to achieve equilibrium, and then harvested onto filter plates, dried and counted on a TopCount NXT. The data was analysed, and the Ki values were presented as the geometric mean of at least two replicates.

[2] = target: GABRA2-GABRB2-GABRG2 chloride currents in HEK cells (Homo sapiens (Human), UniProt P18507+P47869); assay: QPatch electrophysiological recording, % enhancement of GABA current (α2 PAM); format: cell-based; conditions: % enhancement of GABA current at approximately EC10 GABA, −60 mV, whole-cell patch clamp
Protocol: Human Embryonic Kidney (HEK) cells were transfected with a GABRA2-GABRB2-GABRG2 construct using standard techniques. Cells stably expressing the GABRA2-GABRB2-GABRG2 constructs were identified by their resistance to Geneticin G-418 (320 μg/ml), Hygromycin (160 μg/ml) and Zeocin (40 μg/ml). Clones were screened for expression using the BD Pathway 855 imaging system (BD Biosciences, Rockville, Md., USA) and QPatch automated electrophysiology platform (Sophion, Copenhagen, Denmark). […]
GABRA2-GABRB2-GABRG2 chloride currents in HEK cells were measured using the whole-cell configuration of the patch-clamp technique (Hamill et al., 1981). […]
All compounds were dissolved in dimethyl sulfoxide to make 30 mM or 10 mM stock solutions, which were then diluted to 1000 times the desired final concentration in dimethyl sulfoxide. […] Currents were recorded at −60 mV, using an approximately EC10 concentration of gamma-aminobutyric acid (GABA). […]
Compound effect (% enhancement of gamma-aminobutyric acid current) was calculated using the following formula: [((peak modulator current amplitude-leak)−(GABA current amplitude-leak))/(GABA current amplitude-leak)]*100, […]

[3] = target: GABRA1-GABRB3-GABRG2 construct in HEK cells (Homo sapiens (Human), UniProt P14867+P18507); assay: QPatch electrophysiological recording, % enhancement of GABA current (α1 PAM); format: cell-based; conditions: % enhancement of GABA current at approximately EC10 GABA, −60 mV, whole-cell patch clamp

| Ki [1] [nM] | α2 PAM [2] [%] | α1 PAM [3] [%] | SMILES |
| --- | --- | --- | --- |
| < 0.6 | 109 | 18 | CCn1ncc2c(-c3ccc(F)c(-c4ccc(S(=O)(=O)CC)cc4OC)c3)cnnc21 [Example 1, 4-(4′-Ethanesulfonyl-6-fluoro-2′-methoxybiphenyl-3-yl)-1-ethyl-1H-pyrazolo[3,4-c]pyridazine] |
| 17.5 | 109 | 52 | CCn1ncc2c(-c3ccc(F)c(-c4ccc(S(=O)(=O)CC)cc4)c3)cnnc21 [Example 2, 4-(4′-Ethanesulfonyl-6-fluorobiphenyl-3-yl)-1-ethyl-1H-pyrazolo[3,4-c]pyridazine] |
